Like-named read-outs stand apart in the source and are kept apart here.

Experiment [1] deals with MM.1S cells. Nature of the experiment: CellTiter-Glo cell viability assay. To be noted: 72 h; for EC50: Homo sapiens, MM1.S. Format: cell-based, human. The procedure:
For this purpose, the dilution series were prepared in 200-fold concentration in DMSO and further diluted to 10-fold concentration in medium. The final DMSO concentration was 0.5%. The toxicity of compounds was determined after 72 h using the CellTiter-Glo 2.0 Cell Viability Assay (Promega, Madison, WI, USA, #G9242) according to the manufacturer´s protocol. Subsequently, the luminescence was measured using a Tecan Spark (Tecan Group AG, Maennedorf, Swiss) and the half maximal effective concentration (EC50) was determined by plotting dose response curves and nonlinear regression with GraphPad Prism (GraphPad Software, San Diego, CA, USA). […] Cellular HDAC Inhibition Assay […] with minor changes. […] The DMSO-stock solutions were used to perform a serial dilution in DMSO. […] 10 µL of the substrate solution was added and incubated for 3 h under cell culture conditions. […] S8
A general note: Cellular ATP, detected with luciferase, serves as a proxy for viable cell number.

The target of another experiment is HDAC1 (Homo sapiens, UniProt Q13547). The experiment is described as follows: Simple Western immunoassay, HDAC1 levels in MM.1S cell lysates. Format: cell-based. To be noted: MM.1S cells, 10 μM, 24 h. Set-up: endogenous in cells; host or cells: MM.1S. As for the experimental part: Figure 3 Initial degradation screening of HDAC1 and 6 by DCAF11‐recruiting PROTACs by Simple Western™ immunoassay analysis of MM.1S cell lysates. MM.1S cells were treated with the indicated compound (10 μM) or vehicle (DMSO) for 24 h. […] Bottom: Representative images from a total of n=3 biological replicates, labeled with spacer type; w/o: without spacer.
Sequence of HDAC1 (Q13547 whole entry): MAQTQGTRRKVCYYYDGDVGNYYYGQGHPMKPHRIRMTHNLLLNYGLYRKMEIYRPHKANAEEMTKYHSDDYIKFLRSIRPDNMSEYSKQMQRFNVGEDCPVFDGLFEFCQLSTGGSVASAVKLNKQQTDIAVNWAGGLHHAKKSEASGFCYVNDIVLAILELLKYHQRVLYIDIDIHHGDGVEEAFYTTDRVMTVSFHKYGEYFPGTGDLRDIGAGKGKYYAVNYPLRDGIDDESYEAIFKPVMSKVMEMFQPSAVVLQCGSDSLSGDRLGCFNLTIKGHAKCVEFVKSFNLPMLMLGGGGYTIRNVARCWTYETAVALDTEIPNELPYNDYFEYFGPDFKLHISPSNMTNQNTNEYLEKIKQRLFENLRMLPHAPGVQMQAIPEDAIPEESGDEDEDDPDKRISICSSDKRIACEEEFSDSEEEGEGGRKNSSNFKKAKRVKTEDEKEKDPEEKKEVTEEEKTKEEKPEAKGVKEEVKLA
2. Biological Experiments
No unexpected or unusually high safety hazards were encountered.
The human multiple myeloma cell line MM.1S (CRL-2974) was obtained from American Type Culture Collection (ATCC, Manassas, VA, USA). The semi-adherent cells were cultivated in RPMI 1640 medium (Catalog#21875-034, Gibco, ThermoFisher Scientific Inc., Waltham, MA, USA) supplemented with 10% FBS (PAN Biotech GmbH; Aidenbach, Germany), 100 IU/mL penicil lin, 0.1 mg/mL streptomycin (PAN Biotech GmbH) and 1 mM sodium pyruvate (ThermoFisher Scientific Inc.). […]
(PAN Biotech GmbH). All cells were cultured at 37 °C in a 5% CO2 atmosphere. Incubation times, as part of assay protocols, were performed under these conditions as well. The semi-adherent MM.1S were detached mechanically by using a cell scraper and the adhered […] were trypsinased by trypsin/EDTA (0.05%/0.02% in DPBS, PAN Biotech GmbH) whereas the U-87MG were detached by […]
2.2. Simple Western™ Immunoassay
For the cell lysates, MM.1S (0.5 × 10^6 cells/mL) or U-87MG (0.18 × 10^6 cells/mL) cells were seeded and incubated with the indicated concentration of compound or vehicle (DMSO) for the given time. The adherent cells were cultured for 24 h under cell culture conditions for attachment before treatment. Cell lysis was performed with Cell Extraction Buffer (10 mM Tris, pH 7.4, 100 mM NaCl, 1 mM EDTA, […]
SDS, 0.5% deoxycholate; Catalog# FNN0011, Thermo Fisher Scientific Inc., Waltham, MA, USA) with addition of Halt Protease Inhibitor Cocktail (100×) (Catalog# 78429, Life Technologies GmbH, Carlsbad, CA, USA) and phenylmethanesulfonyl fluoride (Catalog# 10837091001, Sigma-Aldrich, St.
Louis, MO, USA) according to manufacturer´s instructions. Protein content was determined by Pierce™ BCA Protein Assay Kit (Catalog# 23225, Thermo Fisher Scientific Inc.) according to manufacturer´s guidelines. Cell lysates were diluted to a final concentration of 1 mg/mL and denatured according to manufacturer’s guidelines. Anti-HDAC1 (Catalog# 5356S, Cell Signaling Technology, Denver, MA, USA), anti-HDAC6 (Catalog#7558S, Cell Signaling Technology) and anti-GAPDH (Catalog# 2118S, […]
Fluorescence Separation 8x25 Capillary Cartridges (Catalog# SM-FL004-1, Protein Simple, Bio-Techne, Minneapolis, MN, USA) were used for separation and the Anti-Mouse Detection Module (Catalog# DM-002, Protein Simple) was used for detection with addition of 20x Anti-Rabbit HRP […]
Conjugate (Catalog# 043-426, Protein Simple) according to manufacturer´s instructions. The assay was performed with the Jess Simple Western System (catalog# 004-650, Protein Simple), according to manufacturer´s settings. Evaluation and quantification was performed with the compass software (6.2.0, Protein Simple). GraphPad Prism (GraphPad Software, San Diego, CA, USA) was used for normalization, statistical analysis and bar graph creation. Significance testing was performed with a one-way analysis of variance (ANOVA). […]
of each mean compared to a reference mean value. […]
AMC (Catalog# 233691-67-3, BLD pharma) was prepared with and without IGEPAL CA-630 (0.5%, Catalog# J61055, Alfa Aesar). 10 µL of the substrate solution was added and incubated for 3 h under cell culture conditions. The reaction was stopped with 100 µL of stop solution (50 mM Tris-HCl, […]
Trypsin) and incubated for 1.5 h under cell culture conditions. The fluorescence signal was measured by a FLUOstar OPTIMA microplate reader (BMG labtech, Ortenburg, Germany) at excitation of λ = 355 nm and emission of λ = 460 nm. All Compounds were tested in two independent experiments in duplicates and IC50 was determined by nonlinear regression with GraphPad Prim.

The subject of experiment [2] is MM.1S cells. The experiment is described as follows: Cell cycle analysis by PI staining and flow cytometry. It counts as cell-based, human. To be noted: 10 μM, 48 h. The procedure: GraphPad Prism (GraphPad Software). […]
Biotech), resuspended in 1 mL EtOH/D PBS (7/3 v/v), and fixed for 30 min at 4 °C. The samples were rehydrated with DPBS and treated with 5 µg /mL RNAse ( Catalog# EN0531 , ThermoFisher Scientific Inc.) for 15 min at room temperature. The staining was performed with 3 µM propidium iodide (in DPBS) for 15 min at room temperature and analyzed by flow cytometry ( Guava easyCyteTM, Luminex, […]
Lakes, NJ, USA), using the Watson Pragmatic algorithm.[6] GraphPad Prism (GraphPad Software) was used for normalization, statistical analysis, and bar graph creation. Significance testing was performed with a one-way analysis of variance (ANOVA). Dunnett’s post-hoc test was employed to obtain […]
Final DMSO concentration was 0.1%.
Staining was performed with
Fluorescence was measured by flow cytometry (Guava® easyCyteTM, Luminex, Austin, Texas). GraphPad Prism (GraphPad Software) was used for normalization, statistical analysis, and bar graph creation. Significance testing was performed with a one-way analysis of variance (ANOVA).
Subsequently, cells were harvested and […]
After 30 minutes of incubation at […]
Dunnett’s post-hoc test was employed
(A flow cytometer gives signals particle by particle.)

The subject of a further experiment is MDA-MB-231 cells. The experiment is described as follows: Clonogenic growth assay. Format: cell-based, human. Particulars: 10 μM for 48 h, nine days of growth. As for the experimental part:
Figure 9 Clonogenic growth assay of DCAF11‐recruiting PROTACs. MDA‐MB‐231 cells were treated with 10 μM of the respective compound or vehicle (DMSO) for 48 hours. (A) Representative images of crystal violet stained colonies after nine days of growth. (B) Quantification of counted colonies, presented as mean ± standard deviation of three biological replicates, each performed in triplicates. Significance of quantification compared to vehicle: ns=p≥0.05; **=p≤0.01 and ***=p≤0.001. […]
Subsequently, cells were harvested and
plated in 6-well plates at a density of 750 cells per well in triplicates. The cell culture medium was
changed after five days. Nine days after plating, the colonies were carefully washed with 500 µL DPBS
and stained with 500 µL crystal violet solution (0.5% in methanol). After 30 minutes of incubation at
room temperature, the wells were gently rinsed with deionized water. After counting the formed
colonies, GraphPad Prism (GraphPad Software) was used for bar graph creation. Significance testing
was performed with a one-way analysis of variance (ANOVA). Dunnett’s post-hoc test was employed
to obtain significance levels of each mean compared to a reference mean value.

Setting [3] is: MM.1S cells, n.e.: no effect (≤25% effect up to 50 μM), read-out: EC50 antiproliferative activity.
The mark [4] stands for this setting: MM.1S cells, n.e.: no effect (≤25% effect up to 50 μM).

The EC50 is the concentration at which the effect is half-maximal. As for `O=C(CCCCCCNC(=O)c1ccc(NC(=O)c2ccc(N(C(=O)CCl)C(C(=O)NCc3ccccc3)c3ccc(Cl)c(Cl)c3)cc2)cc1)NO` (stereo not shown) [Compound 1a], the EC50 in the experiment on MM.1S cells [1] (setting [3]) came out at 34 ± 6 µM. In addition, in the experiment with MM.1S cells [1] (setting [4]), the EC50 antiproliferative activity result was “diminished antiproliferative activity”.
The corresponding values for `O=C(CCCCCCNC(=O)c1ccc(NC(=O)[C@H]2CC[C@H](CN(C(=O)CCl)C(C(=O)NCc3ccccc3)c3ccc(Cl)c(Cl)c3)CC2)cc1)NO` (stereo partly shown) [Compound 1b] are 18 ± 3 µM and “diminished antiproliferative activity”.
Consider `O=C(CCCCCCNC(=O)c1ccc(NC(=O)CCOCCOCCN(C(=O)CCl)C(C(=O)NCc2ccccc2)c2ccc(Cl)c(Cl)c2)cc1)NO` (stereo not shown) [Compound 1c], for which the EC50 in the experiment with MM.1S cells [1] (setting [3]) worked out at 6.2 ± 0.7 µM.
Still for that read-out and setting: then `O=C(CCCCCCNC(=O)c1ccc(NC(=O)CCOCCOCCOCCN(C(=O)CCl)C(C(=O)NCc2ccccc2)c2ccc(Cl)c(Cl)c2)cc1)NO` (stereo not shown) [Compound 1d], with 6.9 ± 0.6 µM.
Turning to `O=C(CCCCCCNC(=O)c1ccc(NC(=O)CCOCCOCCOCCOCCN(C(=O)CCl)C(C(=O)NCc2ccccc2)c2ccc(Cl)c(Cl)c2)cc1)NO` (stereo not shown) [Compound 1e], in the experiment on MM.1S cells [1] (setting [3]), the EC50 was 7.3 ± 0.5 µM. Further, the “reduction of HDAC1 levels” value at HDAC1 worked out at 51%.
For the compound `O=C(CCCCCCNC(=O)c1ccc(NC(=O)CN(C(=O)CCl)C(C(=O)NCc2ccccc2)c2ccc(Cl)c(Cl)c2)cc1)NO` (stereo not shown) [Compound 1f], in the experiment on MM.1S cells [1] (setting [3]), the EC50 is 19 ± 3 µM.
Same read-out and setting: under `O=C(CCCCCCNC(=O)c1ccc(NC(=O)CCCN(C(=O)CCl)C(C(=O)NCc2ccccc2)c2ccc(Cl)c(Cl)c2)cc1)NO` (stereo not shown) [Compound 1g] stands 16 ± 2 µM.
As for `O=C(CCCCCCNC(=O)c1ccc(NC(=O)CCCCCN(C(=O)CCl)C(C(=O)NCc2ccccc2)c2ccc(Cl)c(Cl)c2)cc1)NO` (stereo not shown) [Compound 1h], the EC50 in the experiment on MM.1S cells [1] (setting [3]) came to 18 ± 7 µM. The “reduction of HDAC1 levels” value at HDAC1 was “did not reduce HDAC1 levels”.
For `O=C(CCCCCCNC(=O)c1ccc(NC(=O)CCCCCCCN(C(=O)CCl)C(C(=O)NCc2ccccc2)c2ccc(Cl)c(Cl)c2)cc1)NO` (stereo not shown) [Compound 1i], the EC50 in the experiment on MM.1S cells [1] (setting [3]) was 12 ± 2 µM.
In the case of `O=C(CCCCCCNC(=O)c1cnc(N(c2ccccc2)c2ccccc2)nc1)NO` [Ricolinostat, ricolinostat, reference compound], the EC50 in the experiment with MM.1S cells [1] (read-out: EC50 MM.1S) was 3 ± 0.6 µM. Moreover, the “effect on cell cycle phases” value in the experiment on MM.1S cells [2] is on record as “stronger effects on the different phases of the cell cycle”. Further, the “reduction of colonies (clonogenic growth)” value in the experiment with MDA-MB-231 cells was “less pronounced and not significant”.

The values are drawn from article PMC12091851, “Replacing a Cereblon Ligand by a DDB1 and CUL4 Associated Factor 11 (DCAF11) Recruiter Converts a Selective Histone Deacetylase 6 PROTAC into a Pan‐Degrader” (Chemmedchem, 2025).
